Assays:
Details in all cases: 72 h
U2OS [1] = assay: cell viability relative to DMSO; higher = less toxic
Calu-3 [2] = assay: as above
Caco-2 [3] = assay: as above
HepG2 [4] = assay: as above
Vero E6 [5] = assay: as above
U2OS [6] = assay: drug sensitivity score (DSS) for viability; higher = more toxic; extreme values may be limits of the assay
Calu-3 [7] = assay: as above
Caco-2 [8] = assay: as above
HepG2 [9] = assay: as above
Vero E6 [10] = assay: as above
U2OS [11] = assay: relative viability EC50 (midpoint between 100% and the lowest measured viability); higher = less toxic
Calu-3 [12] = assay: as above
Caco-2 [13] = assay: as above
HepG2 [14] = assay: as above
Vero E6 [15] = assay: as above

| SMILES | cell viability (U2OS [1]; 1 nM) | cell viability (U2OS [1]; 10 nM) | cell viability (U2OS [1]; 100 nM) | cell viability (U2OS [1]; 1000 nM) | cell viability (U2OS [1]; 10000 nM) | cell viability (Calu-3 [2]; 1 nM) | cell viability (Calu-3 [2]; 10 nM) | cell viability (Calu-3 [2]; 100 nM) | cell viability (Calu-3 [2]; 1000 nM) | cell viability (Calu-3 [2]; 10000 nM) | cell viability (Caco-2 [3]; 1 nM) | cell viability (Caco-2 [3]; 10 nM) | cell viability (Caco-2 [3]; 100 nM) | cell viability (Caco-2 [3]; 1000 nM) | cell viability (Caco-2 [3]; 10000 nM) | cell viability (HepG2 [4]; 1 nM) | cell viability (HepG2 [4]; 10 nM) | cell viability (HepG2 [4]; 100 nM) | cell viability (HepG2 [4]; 1000 nM) | cell viability (HepG2 [4]; 10000 nM) | cell viability (Vero E6 [5]; 1 nM) | cell viability (Vero E6 [5]; 10 nM) | cell viability (Vero E6 [5]; 100 nM) | cell viability (Vero E6 [5]; 1000 nM) | cell viability (Vero E6 [5]; 10000 nM) | drug sensitivity score (U2OS [6]) | drug sensitivity score (Calu-3 [7]) | drug sensitivity score (Caco-2 [8]) | drug sensitivity score (HepG2 [9]) | drug sensitivity score (Vero E6 [10]) | relative viability EC50 (U2OS [11]) | relative viability EC50 (Calu-3 [12]) | relative viability EC50 (Caco-2 [13]) | relative viability EC50 (HepG2 [14]) | relative viability EC50 (Vero E6 [15]) |
| --- | --- | --- | --- | --- | --- | --- | --- | --- | --- | --- | --- | --- | --- | --- | --- | --- | --- | --- | --- | --- | --- | --- | --- | --- | --- | --- | --- | --- | --- | --- | --- | --- | --- | --- | --- |
| COc1cc(C[C@H]2C(=O)OC[C@@H]2Cc2ccc(OC)c(OC)c2)ccc1O [arctigenin] | 101% | 101% | 98.3% | 92% | 86% | 112% | 96.9% | 103% | 97.9% | 89.3% | 96.2% | 98.9% | 94.5% | 84.4% | 77.1% | 93.7% | 94.8% | 96.6% | 77.3% | 21% | 96% | 98.2% | 89.8% | 100% | 95% | 0.4 | 0 | 2.3 | 7.8 | 0 | > 10 µM | > 10 µM | > 10 µM | 1.44 µM | > 10 µM |
| CC(C)C(=O)Nc1ncc(-c2cc(C(F)F)nn2-c2c(Cl)cccc2Cl)s1 [LIMKi-3] | 98.1% | 106% | 96.3% | 100% | 88.9% | 88.4% | 92.7% | 98.5% | 118% | 115% | 91.4% | 105% | 92.8% | 94.6% | 97.3% | 110% | 98% | 104% | 106% | 110% | 106% | 101% | 101% | 92.2% | 96% | 0 | 0 | 0 | 0 | 0 | > 10 µM | > 10 µM | > 10 µM | > 10 µM | > 10 µM |
| NC(=O)N/N=C/c1ccc([N+](=O)[O-])o1 [nitrofurazone] | 101% | 98.1% | 103% | 100% | 103% | 104% | 96.9% | 105% | 89% | 95.1% | 93.8% | 101% | 98.8% | 101% | 87.2% | 92.5% | 101% | 110% | 108% | 87.4% | 96.8% | 101% | 95.1% | 97.7% | 106% | 0 | 0.2 | 0.1 | 0 | 0 | > 10 µM | > 10 µM | > 10 µM | > 10 µM | > 10 µM |
| CC(C)(N)CC12CC3CC(CC(C3)C1)C2 [somantadine] | 100% | 95.5% | 99.5% | 91.7% | 92.4% | 100% | 99.8% | 99.1% | 94.3% | 96.8% | 100% | 95.9% | 104% | 96.2% | 93.4% | 100% | 101% | 95.5% | 84.8% | 87.4% | 97.1% | 98.3% | 100% | 100% | 96.1% | 0 | 0 | 0 | 1.9 | 0 | > 10 µM | > 10 µM | > 10 µM | > 10 µM | > 10 µM |
| C=C1CC[C@H](O)C/C1=C/C=C1\CCC[C@]2(C)[C@@H]([C@H](C)CCCC(C)C)CC[C@@H]12 [cholecalciferol] | 94.6% | 103% | 96.4% | 100% | 99.4% | 100% | 102% | 96.5% | 108% | 95.5% | 95.6% | 88.2% | 101% | 103% | 144% | 90.3% | 82.4% | 92.8% | 93.4% | 84.6% | 92.1% | 85.5% | 102% | 93.8% | 120% | 0 | 0 | 0 | 0 | 0 | > 10 µM | > 10 µM | > 10 µM | > 10 µM | > 10 µM |
| Cc1ncc([N+](=O)[O-])n1CCO [metronidazole] | 104% | 97.6% | 98.9% | 96.9% | 98% | 97.3% | 95.9% | 109% | 97% | 102% | 100% | 94.4% | 101% | 94.9% | 98.4% | 97.7% | 102% | 111% | 99.8% | 105% | 96.8% | 99.7% | 96.2% | 93.5% | 100% | 0 | 0 | 0 | 0 | 0 | > 10 µM | > 10 µM | > 10 µM | > 10 µM | > 10 µM |
| CCN1CCC[C@H]1CNC(=O)c1c(OC)ccc(Br)c1OC [remoxipride] | 101% | 103% | 98% | 105% | 95.7% | 96.3% | 113% | 99.7% | 94.3% | 79.9% | 99.9% | 104% | 88.7% | 99.1% | 92.7% | 111% | 92% | 101% | 96.5% | 94.1% | 96.2% | 100% | 94.3% | 91.4% | 91.7% | 0 | 1.3 | 0 | 0 | 0 | > 10 µM | > 10 µM | > 10 µM | > 10 µM | > 10 µM |
| N=C(N)NC(=O)c1cnn(-c2cccc3ncccc23)c1C1CC1 [zoniporide] | 98.8% | 101% | 104% | 100% | 98.6% | 99.8% | 95.1% | 93.8% | 94.5% | 99.6% | 89.6% | 91.8% | 101% | 102% | 95% | 89.9% | 99.2% | 105% | 103% | 101% | 92.7% | 102% | 94.9% | 97.5% | 104% | 0 | 0 | 0 | 0 | 0 | > 10 µM | > 10 µM | > 10 µM | > 10 µM | > 10 µM |
| C[C@@H](c1ncncc1F)[C@](O)(Cn1cncn1)c1ccc(F)cc1F [voriconazole] | 103% | 101% | 97.6% | 97.4% | 109% | 92.4% | 97.5% | 92.4% | 99.8% | 110% | 101% | 92.5% | 102% | 85.6% | 110% | 100% | 106% | 86.9% | 107% | 122% | 98.8% | 101% | 97.8% | 108% | 105% | 0 | 0 | 0 | 0 | 0 | > 10 µM | > 10 µM | > 10 µM | > 10 µM | > 10 µM |
| CCOC(=O)Nc1ccc2c(c1)N(C(=O)CCN1CCOCC1)c1ccccc1S2 [moracizine] | 98.4% | 104% | 101% | 99% | 96.6% | 103% | 95.3% | 98.8% | 95.3% | 98.3% | 101% | 109% | 96.3% | 96.8% | 80.8% | 94.6% | 92.6% | 97.8% | 91.6% | 99.4% | 97.1% | 101% | 96.9% | 98.8% | 96.2% | 0 | 0 | 0.9 | 0 | 0 | > 10 µM | > 10 µM | > 10 µM | > 10 µM | > 10 µM |
| Nc1cc(Cl)c(N=C2NCCN2)c(Cl)c1 [apraclonidine] | 96.4% | 101% | 94.8% | 101% | 102% | 93.6% | 100% | 106% | 106% | 98.2% | 104% | 92.7% | 110% | 111% | 96.6% | 96.5% | 96.7% | 105% | 92.3% | 96.5% | 108% | 89.1% | 101% | 95.2% | 98.6% | 0 | 0 | 0 | 0 | 0 | > 10 µM | > 10 µM | > 10 µM | > 10 µM | > 10 µM |
| CC(=O)[C@@]1(O)CC[C@H]2[C@@H]3C[C@H](C)C4=CC(=O)CC[C@]4(C)[C@H]3CC[C@@]21C [medroxyprogesterone] | 105% | 97.3% | 97.5% | 94.4% | 94.8% | 86.5% | 104% | 95.6% | 104% | 103% | 96.8% | 96.7% | 92.4% | 91.7% | 89.1% | 94.7% | 98.5% | 103% | 106% | 84.1% | 105% | 99.5% | 98.1% | 99% | 89% | 0 | 0 | 0 | 0.2 | 0 | > 10 µM | > 10 µM | > 10 µM | > 10 µM | > 10 µM |
| COc1ccc2cc(OCC3(C(=O)O)CN(C(=O)c4ccc(F)cc4)C3)ccc2c1 | 94.3% | 108% | 96.1% | 97.9% | 95.8% | 106% | 95.4% | 104% | 110% | 102% | 93.5% | 102% | 94.8% | 93.8% | 99% | 106% | 88.7% | 100% | 93% | 96.9% | 99.2% | 96.9% | 99.5% | 96.2% | 95% | 0 | 0 | 0 | 0 | 0 | > 10 µM | > 10 µM | > 10 µM | > 10 µM | > 10 µM |
| CCCCCOC(=O)Nc1nc(=O)n([C@@H]2O[C@H](C)[C@@H](O)[C@H]2O)cc1F [capecitabine] | 96.7% | 103% | 94.3% | 92.6% | 101% | 99% | 110% | 91.8% | 98.6% | 101% | 107% | 110% | 103% | 96.1% | 106% | 97% | 104% | 104% | 99.9% | 96.3% | 102% | 101% | 99.7% | 95% | 95.6% | 0 | 0 | 0 | 0 | 0 | > 10 µM | > 10 µM | > 10 µM | > 10 µM | > 10 µM |

Reference: the supplement of paper PMC13380429
